Legend:
Jejunum [1] = assay: Spasmolytic activity in rabbit jejunum assessed as relaxation of K+-induced muscle contraction at 30 ug/ml relative to calcium; assay type: functional, Oryctolagus cuniculus
Jejunum [2] = assay: Spasmolytic activity in rabbit jejunum assessed as relaxation of K+-induced muscle contraction at 10 ug/ml relative to calcium; assay type: functional, Oryctolagus cuniculus

## CC(=O)O[C@H]1CC[C@]2(C)[C@H]3C=C[C@]45OC(=O)[C@@]6(CC[C@@H](C)[C@H](C)[C@H]64)CC[C@@]5(C)[C@]3(C)CC[C@H]2C1(C)C
Jejunum [1]
  Ratio: 17.51
Jejunum [2]
  Ratio: 6.2

## C[C@H]1[C@H](C)CC[C@@]23CC[C@]4(C)[C@@](C=C[C@@H]5[C@@]6(C)CC[C@H](OC=O)C(C)(C)[C@@H]6CC[C@]54C)(OC2=O)[C@H]13 [CAMALDULIN]
Jejunum [1]
  Ratio: 3.47
Jejunum [2]
  Ratio: 2.03

Source: ChEMBL document CHEMBL1155587, “Spasmolytic constituents from Eucalyptus camaldulensis var. obtusa leaves” (2000)
